Data taken from publication PMC8080777, “Discovery, optimization, and evaluation of non-bile acid FXR/TGR5 dual agonists” (Scientific Reports, 2021).

What was measured:
[1] = target: T1, FXR (Homo sapiens, UniProt Q96RI1); assay: CHO cell-based FXR luciferase reporter assay (Indigo Biosciences); conditions: for FXR Efficacy (%) (1 µM) / FXR Efficacy (%) (10 µM) / FXR Efficacy (%) (0.1 µM): % vs OCA 1 µM as 100%
T1 construct: host or cells: CHO cells
T1 sequence (Q96RI1 1-486): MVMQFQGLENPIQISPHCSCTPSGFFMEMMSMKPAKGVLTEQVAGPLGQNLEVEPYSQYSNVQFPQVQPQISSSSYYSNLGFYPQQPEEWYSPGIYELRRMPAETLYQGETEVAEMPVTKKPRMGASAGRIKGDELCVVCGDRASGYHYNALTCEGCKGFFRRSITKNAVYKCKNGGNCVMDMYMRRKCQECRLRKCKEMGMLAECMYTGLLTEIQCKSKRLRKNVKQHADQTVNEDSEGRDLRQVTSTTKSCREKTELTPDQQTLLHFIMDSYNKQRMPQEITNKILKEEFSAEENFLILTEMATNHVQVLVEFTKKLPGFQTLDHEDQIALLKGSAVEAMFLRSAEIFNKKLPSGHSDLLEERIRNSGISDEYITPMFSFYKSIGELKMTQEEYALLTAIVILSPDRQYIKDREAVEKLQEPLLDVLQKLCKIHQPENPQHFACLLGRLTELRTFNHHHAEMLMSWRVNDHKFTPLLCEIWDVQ
Method: To evaluate direct agonist activities against FXR, test compounds were evaluated using a CHO cell-based FXR assay by Indigo Biosciences (State College, PA), in which cells were transfected with an FXR luciferase reporter system.
To directly evaluate the in vitro agonist activity towards FXR, test compounds were evaluated in CHO cells transfected with FXR responsive luciferase reporter (Nuclear Receptor & In Vitro Toxicology Solutions, Indigo Biosciences, State College, PA, USA). […] Each compound was tested in duplicate, and the average value was reported[35],[36].
(§1) The cell recovery medium (CRM, Human Farnesoid X Receptor (NR1H4, FXR reporter assay system, Indigo Biosciences, State College, PA, USA) and compound screening medium (CSM, Human Farnesoid X Receptor (NR1H4, FXR reporter assay system, Indigo Biosciences, State College, PA, USA) were removed from the freezer and thawed in a water bath at 37 °C. Test compounds were dissolved in dimethyl sulfoxide (DMSO, FUJIFILM Wako Pure Chemical Corporation, Osaka city, Osaka, Japan), and the treatment medium was prepared and diluted with CSM to achieve a final concentration of 0.2% total DMSO. The reporter cells were thawed by transferring 3.3 mL CRM at 37 °C into tubes of frozen cells. The tube containing reporter cells was recapped, and it was immediately place in a 37 °C water bath for 5 min. The reporter cells were gently inverted several times, and 100 µL cell suspension was dispensed into each well. One hundred microliters of treatment media was added into wells. Subsequently, the assay plate was kept at 37 °C, and it was incubated with 5% CO2 for 22 h. To prepare luciferase detection reagent (LDR), the detection substrate was gently mixed with detection buffer, media contents were removed from each well, and 100 µL LDR was added to each well of the assay plate. The assay plate was allowed to rest at room temperature for 5 min, and luminescence was quantified using the Multi-Mode Microplate Reader (FlexStation 3, Molecular Devices Inc., San Jose, CA, USA)[36].
S4. In vitro, in vivo assay, and selectvity.
To directly evaluate the in vitro agonist activity towards FXR, test compounds were evaluated in CHO cells transfected with FXR responsive luciferase reporter (Nuclear Receptor & In Vitro Toxicology Solutions, Indigo Biosciences, State College, PA, USA). Cells were incubated with […]
(FlexStation 3, Molecular Devices Inc., San Jose, CA, USA). Efficacies are reported relative to […]
reporter on of 1 µM. Each compound was tested in duplicate, and the average value was […]
as §1, with “sulfoxide (DMSO ,” for “sulfoxide (DMSO,”, “Osaka, Jap an),” for “Osaka, Japan),”, “a 37°C” for “a 37 °C”, “5% CO 2” for “5% CO2”, “using […]” for “using the Multi-Mode Microplate Reader (FlexStation 3, Molecular Devices Inc., San Jose, CA, USA)[36].”

[2] = target: T2, TGR5 (Homo sapiens, UniProt Q8TDU6); assay: TGR5 cAMP assay in CHO cells transfected with TGR5 (cAMP Hunter eXpress, Discover X); type: cell-based
T2 construct: host or cells: CHO cells
T2 sequence (Q8TDU6 1-330): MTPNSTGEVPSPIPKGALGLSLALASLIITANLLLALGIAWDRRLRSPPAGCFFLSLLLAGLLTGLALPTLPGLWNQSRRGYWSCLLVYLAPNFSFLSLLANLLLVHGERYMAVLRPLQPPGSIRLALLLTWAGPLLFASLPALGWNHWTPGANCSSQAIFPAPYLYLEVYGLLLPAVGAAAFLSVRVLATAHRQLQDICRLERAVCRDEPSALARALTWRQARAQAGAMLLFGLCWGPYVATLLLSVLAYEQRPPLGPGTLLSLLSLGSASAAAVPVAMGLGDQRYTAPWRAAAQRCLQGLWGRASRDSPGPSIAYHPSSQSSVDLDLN
Method: TGR5 agonist activity was evaluated by transfecting CHO cells with TGR5 using the Discover X expression kit (cAMP Hunter eXpress GPCR Assay, Discover X Fremont, CA). Cells were incubated with test compounds for 0.5 h, and intracellular cAMP levels were measured using the multi-mode microplate reader.
(§2) TGR5 agonist activity was evaluated by transfecting CHO cells with TGR5 using the Discover X expression kit (cAMP Hunter eXpress Assay Kit, Discover X Fremont, CA, USA). Cells were incubated with the test compounds for 0.5 h, and intracellular cAMP levels were measured using Multi-Mode Microplate Reader (FlexStation 3, Molecular Devices Inc., San Jose, CA, USA).
Each compound was tested at concentrations of 10, 1, or 0.1 µM in duplicate (n = 2), with the average value shown.
S4. In vitro, in vivo assay, and selectvity. […]
In vitro TGR5 agonist assay protocol
as §2
Each compound was tested at concentrations of 10, 1, or 0.1 µM in duplicate (n=2), with the […]
parameter logistic equation, Y = min + (max - min)/(1 + 10^(n * (log10(EC50) - log10(conc)))), in […]

Row | SMILES | FXR Efficacy (%) (1 µM) [1] | TGR5 Efficacy (%) (10 µM) ([2]; % vs INT-767 10 µM as 100%) | TGR5 agonist activity (in words) [2] | FXR agonist activity (in words) [1] | FXR Efficacy (%) (10 µM) [1] | FXR Efficacy (%) (0.1 µM) [1] | TGR5 Efficacy (%) (1 µM) ([2]; 1 µM, % vs INT-767 10 µM as 100%)
1 | Cc1cnccc1C(=O)N(Cc1ccc(-c2ccc(N(C)C)cc2)cc1)c1cc(Cl)cc(N2CCC2)c1 [Compound 13n] | 20.2% | 10.2% |  |  |  |  | 
2 | Cc1cnccc1C(=O)N(Cc1ccc(-c2ccc(N(C)C)cc2)cc1)c1cc(Cl)cc(-c2cnn(C(C)C)c2)c1 [Compound 13o] | 68.8% | -1.5% |  |  |  |  | 
3 | Cc1cnccc1C(=O)N(Cc1ccc(-c2ccc(N(C)C)cc2)cc1)c1cc(Cl)ccc1C [Compound 13p] | 1.9% | 93.4% | good potency against TGR5 |  |  |  | 
4 | Cc1cnccc1C(=O)N(Cc1ccc(-c2ccc(N(C)C)cc2)cc1)c1cc(Cl)ccc1Cl [Compound 13q] | 1.5% | 75.2% | good potency against TGR5 |  |  |  | 
5 | Cc1cnccc1C(=O)N(Cc1ccc(-c2ccc(N(C)C)cc2)cc1)c1cc(Cl)cc(Cl)c1C [Compound 13r] | 8.6% | 91.9% | good potency against TGR5 |  |  |  | 
6 | Cc1cnccc1C(=O)N(Cc1ccc(-c2ccc(N(C)C)cc2)cc1)c1cccc(-c2cnn(C(C)C)c2)c1C [Compound 13s] | 61.0% | 24.1% | moderate FXR/TGR5 agonist activity | moderate FXR/TGR5 agonist activity |  |  | 
7 | Cc1cnccc1C(=O)N(Cc1ccc(-c2ccc(N(C)C)cc2)cc1)c1cccc(-c2cnn(C(C)C)c2)c1F [Compound 13t] | 92.6% | 8.3% |  | strong FXR agonist activities |  |  | 
8 | COC(=O)/C=C/c1cccc(N(Cc2ccc(-c3ccc(N(C)C)cc3)cc2)C(=O)c2ccncc2C)c1F [Compound 13u] | 90.3% | -2.5% |  | strong FXR agonist activities |  |  | 
9 | CCc1cnccc1C(=O)N(Cc1ccc(-c2ccc(N(C)C)cc2)cc1)c1cc(Cl)cc(Cl)c1 [Compound 13v] | 21.3% | 65.3% |  |  |  |  | 
10 | CN(C)c1ccc(-c2ccc(CN(C(=O)c3ccncc3C3CC3)c3cc(Cl)cc(Cl)c3)cc2)cc1 [Compound 13w] | 22.7% | 73.1% |  |  |  |  | 
11 | CN(C)c1ccc(-c2ccc(CN(C(=O)c3ccncc3Cl)c3cc(Cl)cc(Cl)c3)cc2)cc1 [Compound 13x] | 62.1% | 9.8% |  |  |  |  | 
12 | CN(C)c1ccc(-c2ccc(CN(C(=O)c3ccncc3Br)c3cc(Cl)cc(Cl)c3)cc2)cc1 [Compound 13y] | 51.6% | -2.0% |  |  |  |  | 
13 | CN(C)c1ccc(-c2ccc(CN(C(=O)c3ccncc3C(F)(F)F)c3cc(Cl)cc(Cl)c3)cc2)cc1 [Compound 13z] | 10.6% | 24.4% |  |  |  |  | 

More lines, now with the values ahead:

Row | FXR Efficacy (%) (1 µM) [1] | TGR5 Efficacy (%) (10 µM) ([2]; % vs INT-767 10 µM as 100%) | TGR5 agonist activity (in words) [2] | FXR agonist activity (in words) [1] | FXR Efficacy (%) (10 µM) [1] | FXR Efficacy (%) (0.1 µM) [1] | TGR5 Efficacy (%) (1 µM) ([2]; 1 µM, % vs INT-767 10 µM as 100%) | SMILES
14 | 52.2% | 22.3% |  |  |  |  |  | Cc1cnccc1C(=O)N(C[C@H]1CC[C@H](c2ccccc2)CC1)c1cc(Cl)cc(Cl)c1 [Compound 20a]
15 | 47.1% | 31.1% |  |  | 106.8% |  |  | Cc1cnccc1C(=O)N(C[C@H]1CC[C@H](c2ccc(N(C)C)cc2)CC1)c1cc(Cl)cc(Cl)c1 [Compound 20b]
16 | 51.7% | 5.7% |  |  |  |  |  | Cc1cccc([C@H]2CC[C@H](CN(C(=O)c3ccncc3C)c3cc(Cl)cc(Cl)c3)CC2)c1 [Compound 20c]
17 | 55.2% | 28.8% | weak TGR5 agonist | partial FXR agonists | 129.6% |  |  | COc1ccc([C@H]2CC[C@H](CN(C(=O)c3ccncc3C)c3cc(Cl)cc(Cl)c3)CC2)cc1C [Compound 20d]
18 | 69.1% | 33.9% | weak TGR5 agonist | partial FXR agonists | 72.6% |  |  | COc1ccc([C@@H]2CC[C@@H](CN(C(=O)c3ccncc3C)c3cc(Cl)cc(Cl)c3)C(C)C2)cc1C (stereo partly shown) [Compound 20e]
19 | 90.3% | 28.8% | weak TGR5 agonist | partial FXR agonists | 64.3% |  |  | COc1ccc(C23CCC(CN(C(=O)c4ccncc4C)c4cc(Cl)cc(Cl)c4)(CC2)CC3)cc1C [Compound 20f]
20 | 51.1% | -5.2% |  |  |  |  |  | COc1ccc(C2C3CCC2CC(CN(C(=O)c2ccncc2C)c2cc(Cl)cc(Cl)c2)C3)cc1C (stereo not shown) [Compound 20g]
21 | 89.2% | 62.1% |  |  |  | 62.6% |  | COc1ccc(C23CCC(CN(C(=O)c4ccncc4C)c4cc(F)cc(Cl)c4)(CC2)CC3)cc1C [Compound 20i]
22 | 71.7% | 71.1% |  |  |  | 13.5% | 21.5% | CCc1cnccc1C(=O)N(CC12CCC(c3ccc(OC)c(C)c3)(CC1)CC2)c1cc(F)cc(Cl)c1 [Compound 20j]
23 | 91.5% | 72.4% |  |  |  | 58.5% |  | Cc1cnccc1C(=O)N(CC12CCC(c3ccc4c(c3)CCO4)(CC1)CC2)c1cc(Cl)cc(Cl)c1 [Compound 20m]
